Reference: patent publication US9371331B2, “Modulators of methyl modifying enzymes, compositions and uses thereof” (Constellation Pharmaceuticals, Inc., priority 2012, dated 2016)
Where two headings read alike, the source gives them in different places.

Legend:
EZH2 (rPRC2) = EZH2 (rPRC2) (Homo sapiens, UniProt Q15910); test: EZH2 assay: rPRC2, biotinylated oligonucleosomes, 3H SAM methyl transfer (FlashPlate scintillation); format: biochemical; settings: biotinylated oligonucleosome substrate
Protocol: Assays were carried out by mixing rPRC2 together with biotinylated oligonucleosome substrates in the presence of the radio-labeled enzyme co-factor, S-adenosyl-1-methionine (^3H SAM) (Perkin Elmer) and monitoring the enzymatically mediated transfer of tritiated methyl groups from ^3H SAM to histone lysine residues. The amount of resulting tritiated methyl histone product was measured by first capturing the biotinylated oligonucleosomes in streptavidin (SAV) coated FlashPlates (Perkin Elmer), followed by a wash step to remove un-reacted ^3H SAM, and then counting on a TopCount NXT 384 well plate scintillation counter (Perkin Elmer). The final assay conditions for EZH2 were as follows: 50 mM Tris Buffer pH 8.5, 1 mM DTT, 69 μM Brij-35 detergent, 5.0 mM MgCl2, 0.1 mg/mL BSA, 0.2 μM ^3H SAM, 0.2 μM biotinylated oligonucleosomes, 3.6 μM H3K27 mc3 peptide and 2 nM EZH2.
A 12.5 μL volume of the HMT enzyme, H3K27me3 peptide and oligonucleosome substrate in assay buffer was added to each well of the assay plate using a Multidrop Combi (ThermoFisher). Compounds were pre-incubated with the enzyme for 20 min, followed by initiation of the methyltransferase reaction by addition of 12.5 μL of ^3H SAM in assay buffer (final volume=25 μL). The final concentrations of compounds ranged from a top default concentration of 80 μM down to 0.16 μM in ten 2-fold dilution steps. Reactions were carried out for 60 minutes and quenched with 20 μL per well of 1.96 mM SAH, 50 mM Tris pH 8.5, 200 mM EDTA. Stopped reactions were transferred to SAV coated Flashplates (Perkin Elmer), incubated for 120 min, washed with a plate washer, and then read on the TopCount NXT (1.0 min/well) to measure the amount of methyl histone product formed during the reaction.

Y641N EZH2 = Y641N EZH2 (Homo sapiens, UniProt Q15910, Y641N); test: Y641N EZH2 assay: as EZH2 assay, with reconstituted H3K27Me2 oligonucleosomes as substrate; format: biochemical
Chain of Y641N EZH2 (Q15910 whole entry Y641N): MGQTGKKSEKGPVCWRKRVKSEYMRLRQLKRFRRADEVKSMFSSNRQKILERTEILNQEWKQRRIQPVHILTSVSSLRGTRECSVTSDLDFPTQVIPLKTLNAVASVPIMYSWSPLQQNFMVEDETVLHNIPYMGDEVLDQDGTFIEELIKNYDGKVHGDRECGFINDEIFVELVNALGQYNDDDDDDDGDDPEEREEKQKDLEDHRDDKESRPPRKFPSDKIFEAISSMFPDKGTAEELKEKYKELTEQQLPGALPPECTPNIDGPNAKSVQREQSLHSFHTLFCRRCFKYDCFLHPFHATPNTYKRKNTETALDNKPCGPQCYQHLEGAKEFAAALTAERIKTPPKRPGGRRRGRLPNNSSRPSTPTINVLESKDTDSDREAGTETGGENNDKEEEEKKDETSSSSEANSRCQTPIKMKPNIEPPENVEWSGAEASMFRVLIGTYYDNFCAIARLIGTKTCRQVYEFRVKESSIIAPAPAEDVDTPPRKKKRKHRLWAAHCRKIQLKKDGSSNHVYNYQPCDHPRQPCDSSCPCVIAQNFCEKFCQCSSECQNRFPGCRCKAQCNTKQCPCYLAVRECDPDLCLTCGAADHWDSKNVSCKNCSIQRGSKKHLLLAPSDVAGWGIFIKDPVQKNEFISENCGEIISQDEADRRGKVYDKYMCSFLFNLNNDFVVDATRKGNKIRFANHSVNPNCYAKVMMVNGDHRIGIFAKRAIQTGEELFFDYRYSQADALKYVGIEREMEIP
Chain of Y641N EZH2 (O75530 whole entry partner): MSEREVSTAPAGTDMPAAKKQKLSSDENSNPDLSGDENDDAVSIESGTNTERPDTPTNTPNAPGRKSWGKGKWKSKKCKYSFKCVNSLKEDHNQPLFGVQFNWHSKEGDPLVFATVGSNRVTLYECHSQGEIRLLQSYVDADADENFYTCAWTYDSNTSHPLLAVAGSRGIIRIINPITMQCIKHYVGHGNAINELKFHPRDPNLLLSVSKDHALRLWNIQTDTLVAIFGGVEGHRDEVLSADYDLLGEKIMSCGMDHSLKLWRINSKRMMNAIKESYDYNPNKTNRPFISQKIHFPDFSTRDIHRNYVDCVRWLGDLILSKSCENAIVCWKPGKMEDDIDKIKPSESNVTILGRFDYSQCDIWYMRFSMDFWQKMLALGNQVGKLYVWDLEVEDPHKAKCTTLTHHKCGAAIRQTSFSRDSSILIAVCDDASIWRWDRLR
Chain of Y641N EZH2 (Q15022 whole entry partner): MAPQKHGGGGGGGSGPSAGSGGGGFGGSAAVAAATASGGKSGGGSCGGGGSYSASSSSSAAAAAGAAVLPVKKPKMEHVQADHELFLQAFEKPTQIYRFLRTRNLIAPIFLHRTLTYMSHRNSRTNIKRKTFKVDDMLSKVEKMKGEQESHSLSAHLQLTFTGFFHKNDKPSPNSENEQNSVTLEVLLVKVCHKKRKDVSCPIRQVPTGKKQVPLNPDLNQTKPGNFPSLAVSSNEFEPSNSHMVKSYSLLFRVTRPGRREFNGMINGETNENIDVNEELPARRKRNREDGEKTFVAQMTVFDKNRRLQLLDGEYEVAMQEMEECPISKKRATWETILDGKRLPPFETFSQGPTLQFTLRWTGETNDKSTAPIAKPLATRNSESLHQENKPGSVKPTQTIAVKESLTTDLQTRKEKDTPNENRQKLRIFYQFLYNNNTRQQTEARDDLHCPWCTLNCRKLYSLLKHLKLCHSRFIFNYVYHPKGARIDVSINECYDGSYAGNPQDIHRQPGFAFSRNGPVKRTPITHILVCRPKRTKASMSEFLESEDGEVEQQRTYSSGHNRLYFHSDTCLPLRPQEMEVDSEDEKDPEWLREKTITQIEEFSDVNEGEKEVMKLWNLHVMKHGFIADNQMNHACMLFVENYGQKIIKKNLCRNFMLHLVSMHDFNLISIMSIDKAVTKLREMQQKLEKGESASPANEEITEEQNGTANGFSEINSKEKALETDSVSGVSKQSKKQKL

[1] = EZH2 IC50, wild-type EZH2 (rPRC2)
[2] = Y641N EZH2 IC50, Y641N mutant EZH2, H3K27Me2 oligonucleosome substrate
[3] = wild-type EZH2 (rPRC2), read-out: EZH2 IC50
[4] = Y641N mutant EZH2, H3K27Me2 oligonucleosome substrate, read-out: Y641N EZH2 IC50

Chain of EZH2 (rPRC2) (Q15910 whole entry): as the sequence (Q15910 whole entry Y641N) above, with N641Y counted along it
Chain of EZH2 (rPRC2) (O75530 whole entry partner): as the sequence (O75530 whole entry partner) above
Chain of EZH2 (rPRC2) (Q15022 whole entry partner): as the sequence (Q15022 whole entry partner) above

Row | SMILES | IC50 (EZH2 (rPRC2); [1]) [nM] | IC50 (Y641N EZH2; [2]) [nM] | other results
1 | Cc1cc(C)c(CNC(=O)c2c(C)n(C(C)c3ccccc3C#N)c3ccccc23)c(=O)[nH]1 (racemic) [Compound 178, (±)-1-(1-(2-cyanophenyl)ethyl)-N-((4,6-dimethyl-2-oxo-1,2-dihydropyridin-3-yl)methyl)-2-methyl-1H-indole-3-carboxamide] | 100 to 1000 | 1000 to 10000 | –
2 | Cc1cc(C)c(CNC(=O)c2nn(C(C)c3ccccc3)c3ccccc23)c(O)n1 (centres unmarked) [Compound 112, N-((2-hydroxy-4,6-dimethylpyridin-3-yl)methyl)-1-(1-phenylethyl)-1H-indazole-3-carboxamide] | – | – | EZH2 IC50 (EZH2 (rPRC2); wild-type EZH2 (rPRC2)): *(10 μM); Y641N EZH2 IC50 (Y641N EZH2; Y641N mutant EZH2, H3K27Me2 oligonucleosome substrate): *(10 μM)
3 | COc1cccc(C(C)n2c(C)c(C(=O)NCc3c(C)cc(C)[nH]c3=O)c3cccnc32)c1 (racemic) [Compound 206, (±)-N-((4,6-dimethyl-2-oxo-1,2-dihydropyridin-3-yl)methyl)-1-(1-(3-methoxyphenyl)ethyl)-2-methyl-1H-pyrrolo[2,3-b]pyridine-3-carboxamide] | 100 to 1000 | 1000 to 10000 | –
4 | CCCc1cc(C)[nH]c(=O)c1CNC(=O)c1c(C)n(C(C)COC)c2ncccc12 (racemic) [Compound 216, (±)-1-(1-methoxypropan-2-yl)-2-methyl-N-((6-methyl-2-oxo-4-propyl-1,2-dihydropyridin-3-yl)methyl)-1H-pyrrolo[2,3-b]pyridine-3-carboxamide] | 100 to 1000 | 1000 to 10000 | –
5 | Cc1cc(C)c(CNC(=O)c2cnn(C(C)c3ccccc3)c2C)c(O)n1 (single isomer, unassigned) [Compound 107, (R or S)—N-((2-hydroxy-4,6-dimethylpyridin-3-yl)methyl)-5-methyl-1-(1-phenylethyl)-1H-pyrazole-4-carboxamide] | – | – | IC50 (EZH2 (rPRC2); [3]): > 10000 nM; IC50 (Y641N EZH2; [4]): > 10000 nM
6 | Cc1cc(C)c(CNC(=O)c2c(C)n(S(=O)(=O)N3CCCCC3)c3ncccc23)c(=O)[nH]1 [Compound 194, N-((4,6-dimethyl-2-oxo-1,2-dihydropyridin-3-yl)methyl)-2-methyl-1-(piperidin-1-ylsulfonyl)-1H-pyrrolo[2,3-b]pyridine-3-carboxamide] | – | – | IC50 (EZH2 (rPRC2); [3]): 100 to 1000 nM; IC50 (Y641N EZH2; [4]): 1000 to 10000 nM
7 | COc1cc(C)[nH]c(=O)c1CNC(=O)c1c(C)n(C(C)c2ccccc2)c2ccccc12 (single isomer, unassigned) [Compound 115, (S or R)N-((4-methoxy-6-methyl-2-oxo-1,2-dihydropyridin-3-yl)methyl)-2-methyl-1-(1-phenylethyl)-1H-indole-3-carboxamide] | – | – | IC50 (EZH2 (rPRC2); read-out: EZH2 IC50, wild-type EZH2 (rPRC2)): < 100 nM
8 | Cc1cc(C)c(CNC(=O)c2c(C)n([C@H](C)c3ccccc3)c3nc(C4CCOCC4)ncc23)c(O)n1 [Compound 168, (R)-N-((2-hydroxy-4,6-dimethylpyridin-3-yl)methyl)-6-methyl-7-(1-phenylethyl)-2-(tetrahydro-2H-pyran-4-yl)-7H-pyrrolo[2,3-d]pyrimidine-5-carboxamide] | – | – | IC50 (EZH2 (rPRC2); [3]): 100 to 1000 nM; IC50 (Y641N EZH2; [4]): 1000 to 10000 nM
9 | COc1nccc(C(C)n2c(C)c(C(=O)NCc3c(C)cc(C)[nH]c3=O)c3cccnc32)n1 (racemic) [Compound 233, (±)-N-((4,6-dimethyl-2-oxo-1,2-dihydropyridin-3-yl)methyl)-1-(1-(2-methoxypyrimidin-4-yl)ethyl)-2-methyl-1H-pyrrolo[2,3-b]pyridine-3-carboxamide] | 100 to 1000 | 1000 to 10000 | –
10 | COc1cc(C)[nH]c(=O)c1CNC(=O)c1c(C)n(C(C)C(OC)C(F)(F)F)c2ncccc12 (centres unmarked) [Compound 312, N-((4-methoxy-6-methyl-2-oxo-1,2-dihydropyridin-3-yl)methyl)-2-methyl-1-(4,4,4-trifluoro-3-methoxybutan-2-yl)-1H-pyrrolo [2,3-b] pyridine-3-carboxamide] | 100 to 1000 | 100 to 1000 | –
11 | CCC(OC)C(C)n1c(C)c(C(=O)NCc2c(OC)cc(C)[nH]c2=O)c2ccccc21 (centres unmarked) [Compound 299, N-((4-methoxy-6-methyl-2-oxo-1,2-dihydropyridin-3-yl)methyl)-1-(3-methoxypentan-2-yl)-2-methyl-1H-indole-3-carboxamide] | < 100 | < 100 | –
12 | CCc1cc(OC)c(CNC(=O)c2c(C)n(C(C)COC)c3ncccc23)c(=O)[nH]1 (racemic) [Compound 280, (±)-N-((6-ethyl-4-methoxy-2-oxo-1,2-dihydropyridin-3-yl)methyl)-1-(1-methoxypropan-2-yl)-2-methyl-1H-pyrrolo[2,3-b]pyridine-3-carboxamide] | 100 to 1000 | 1000 to 10000 | –
13 | COCC(C)n1c(C)c(C(=O)NCc2c(OC)cc(C3CC3)[nH]c2=O)c2cccnc21 (racemic) [Compound 260, (±)-N-((6-cyclopropyl-4-methoxy-2-oxo-1,2-dihydropyridin-3-yl)methyl)-1-(1-methoxypropan-2-yl)-2-methyl-1H-pyrrolo[2,3-b]pyridine-3-carboxamide] | 100 to 1000 | 1000 to 10000 | –
14 | COc1cc(C)[nH]c(=O)c1CNC(=O)c1c(C)n([C@H](C)[C@H](OC)C2CC2)c2ncccc12 (single isomer, unassigned) [Compound 285, 1-((1R or S, 2R or S)-1-cyclopropyl-1-methoxypropan-2-yl)-N-((4-methoxy-6-methyl-2-oxo-1,2-dihydropyridin-3-yl)methyl)-2-methyl-1H-pyrrolo[2,3-b]pyridine-3-carboxamide] | 100 to 1000 | 1000 to 10000 | –
15 | Cc1cc(C)c(CNC(=O)c2c(C)n(C(C)c3ccccc3C)c3ccccc23)c(=O)[nH]1 (racemic) [Compound 174, (±)-N-((4,6-dimethyl-2-oxo-1,2-dihydropyridin-3-yl)methyl)-2-methyl-1-(1-(o-tolyl)ethyl)-1H-indole-3-carboxamide] | 100 to 1000 | 1000 to 10000 | –
16 | CC[C@@H](C)n1c(C)c(C(=O)NCc2c(C)cc(C)[nH]c2=O)c2cnc(C(C)C)nc21 [Compound 197, (R)-7-(sec-butyl)-N-((4,6-dimethyl-2-oxo-1,2-dihydropyridin-3-yl)methyl)-2-isopropyl-6-methyl-7H-pyrrolo[2,3-d]pyrimidine-5-carboxamide] | 100 to 1000 | 100 to 1000 | –
17 | COc1ncc2c(C(=O)NCc3c(C)cc(C)nc3O)c(C)n([C@H](C)c3ccccc3)c2n1 [Compound 141, (R)—N-((2-hydroxy-4,6-dimethylpyridin-3-yl)methyl)-2-methoxy-6-methyl-7-(1-phenylethyl)-7H-pyrrolo[2,3-d]pyrimidine-5-carboxamide] | 100 to 1000 | 1000 to 10000 | –
18 | CNC(=O)c1cccc(C(C)n2c(C)c(C(=O)NCc3c(OC)cc(C)[nH]c3=O)c3cccnc32)c1 (centres unmarked) [Compound 263, N-((4-methoxy-6-methyl-2-oxo-1,2-dihydropyridin-3-yl)methyl)-2-methyl-1-(1-(3-(methylcarbamoyl)phenyl)ethyl)-1H-pyrrolo[2,3-b]pyridine-3-carboxamide] | – | – | IC50 (EZH2 (rPRC2); [3]): < 100 nM; IC50 (Y641N EZH2; [4]): 100 to 1000 nM
19 | Cc1cc(C)c(CNC(=O)c2c(C)n(CC3(C)COC3)c3ccccc23)c(=O)[nH]1 [Compound 246, N-((4,6-dimethyl-2-oxo-1,2-dihydropyridin-3-yl)methyl)-2-methyl-1-((3-methyloxetan-3-yl)methyl)-1H-indole-3-carboxamide] | 100 to 1000 | 100 to 1000 | –
20 | CCC(C)n1c(C)c(C(=O)NCc2c(C)cc(C)[nH]c2=O)c2cccnc21 (single isomer, unassigned) [Compound 196, (R or S)-1-(sec-butyl)-N-((4,6-dimethyl-2-oxo-1,2-dihydropyridin-3-yl)methyl)-2-methyl-1H-pyrrolo[2,3-b]pyridine-3-carboxamide] | – | 100 to 1000 | –
21 | Cc1cc(C)c(CNC(=O)c2c(-c3ccccc3)n(C(C)c3ccccc3)c3ccccc23)c(O)n1 (single isomer, unassigned) [Compound 446, (R or S)-N-((2-hydroxy-4,6-dimethylpyridin-3-yl)methyl)-2-phenyl-1-(1-phenylethyl)-1H-indole-3-carboxamide] | – | – | EZH2 IC50 (EZH2 (rPRC2); wild-type EZH2 (rPRC2)): *(10 uM)
22 | Cc1cc(C)c(CNC(=O)c2cnn(C(C)c3ccccc3)c2C)c(O)n1 (single isomer, unassigned) [Compound 108, (R or S)—N-((2-hydroxy-4,6-dimethylpyridin-3-yl)methyl)-5-methyl-1-(1-phenylethyl)-1H-pyrazole-4-carboxamide] | – | – | IC50 (EZH2 (rPRC2); [3]): > 10000 nM
23 | Cc1cc(C)c(CNC(=O)c2c(C)n(C(C)c3ccccc3)c3ncccc23)c(=O)[nH]1 (single isomer, unassigned) [Compound 117, N-((4,6-dimethyl-2-oxo-1,2-dihydropyridin-3-yl)methyl)-2-methyl-1-(1-phenylethyl)-1H-pyrrolo[2,3-b]pyridine-3-carboxamide] | – | – | IC50 (Y641N EZH2; read-out: Y641N EZH2 IC50, Y641N mutant EZH2, H3K27Me2 oligonucleosome substrate): 100 to 1000 nM
